Converted amounts (≈) assume the structure as drawn.
Test system: Malassezia furfur (CBS 7982)
Experiment: In vitro evaluation of antifungal potency (MIC)
Type: cell-based
Conditions: for MIC value, Malassezia furfur / MIC: M. furfur CBS 7982, mDixon medium, 31° C., approximately 72 hours, absorbance at 600 nm; for MIC: Malassezia furfur, CBS7982
Method: Malassezia furfur (CBS 7982) is grown for approximately 24 hours in a 250 ml vent cap polycarbonate Erlenmeyer flask containing approximately 100 ml of mDixon medium and 5 ml of a fully grown M. furfur culture prepared using the same conditions as described. The cells are diluted by mixing 2.5 ml of the 24 hour-old culture per 50 ml of mDixon medium. A Versette robot (ThermoFisher Scientific) is used to transfer 292.5 μl of the dilute cells into each well of a Beckman 267007 polypropylene round bottom deep well plate. All compounds are sourced from Sigma Aldrich (St. Louis, Mo.) and prepared as 10 mg/ml in DMSO. A semipermeable aeraseal membrane is applied to the plate which is then be covered with water-soaked cotton batting. The samples are be shaken at 31° C. on a Heidolph Titramax 100 shaker at 1500 rpm for approximately 72 hours. The plates are shaken at 1250 rpm on an Eppendorf MixMate shaker to disperse the cells before transferring 200 μl to a Corning 3596 polystyrene plate. The samples are shaken again at 950 rpm on a MixMate shaker before the absorbance at 600 nm is read using a Molecular Devices SpectraMax plate reader.

CNC(=O)/C(=N/OC)c1ccccc1COc1cc(C)ccc1C [Dimoxystrobin, dimoxystrobin]
MIC value, Malassezia furfur: 7.81 ppm

CO/N=C(/C1=NOCCO1)c1ccccc1Oc1ncnc(Oc2ccccc2Cl)c1F [Fluoxastrobin, fluoxastrobin]
MIC: 3.91 µg/mL (≈ 8.52 µM)

CO/N=C(/C(=O)OC)c1ccccc1COc1ccccc1C [Kresoxim-methyl, kresoxim methyl]
MIC: 15.6 µg/mL (≈ 49.9 µM)

CNC(=O)/C(=N/OC)c1ccccc1CO/N=C(C)/C(=N/OC)C(/C)=N/OC [Orysastrobin, orysastrobin]
MIC value, Malassezia furfur: 31.25 ppm | times less potent than azoxystrobin (MIC) (Malassezia furfur MIC ratio): 64 times

COC(=O)N(OC)c1ccccc1COc1ccn(-c2ccc(Cl)cc2)n1 [Pyraclastrobin, pyraclostrobin]
MIC: 1.95 µg/mL (≈ 5.03 µM)

CON=C(C(=O)OC)c1ccccc1CON=C(C)c1cccc(C(F)(F)F)c1 [Trifloxystrobin, trifloxystrobin]
MIC: 15.6 µg/mL (≈ 38.3 µM)

zinc pyrithione
MIC value, Malassezia furfur: 3.13 ppm

Source: patent US20220192955A1, “AZOXYSTROBIN EFFICACY IN SCALP HEALTH” (The Procter & Gamble Company, priority 2020, published 2022)
